Results taken from patent US6914045B2, “Glycopeptide antibiotics” (Wyeth Holdings Corporation, priority 2001, dated 2005).
In brackets after ≈: the same amount, converted by molar mass.

Experiments:
[1] = tested on: Staphylococcus aureus-SMITH (GC 4543); experiment: acute lethal infection in mice; type: in vivo; details: acute lethal infection, female CD-1 mice, intraperitoneal challenge, intravenous 30 min. after infection, 7 day survival
How it was run: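 Survival at 7 days, pooled from three independent tests, yields ED50 values. Treatment is intravenous, 30 min after ip infection of female CD-1 mice, using an inoculum lethal to untreated controls within 24-48 hr.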

Streptococcus sp. = experiment: in vitro antibacterial evaluation, MIC by broth dilution; type: cell-based; details: broth dilution, 18 hours at 35° C.
How it was run: (§1)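 Read-out: the lowest concentration at which the test strain fails to grow. Serial dilutions (64-0.06 μg/mL) in Muller-Hinton II […], 5×10^5 CFU/mL inoculum, NCCLS M7-A2 procedure.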

Staphylococcus sp. = experiment: as above; type: cell-based; details: broth dilution, 18 hours at 35° C.
How it was run: as §1

Enterococcus sp. = experiment: as above; type: cell-based; details: broth dilution, 18 hours at 35° C.
How it was run: as §1

Escherichia coli = experiment: as above; type: cell-based; details: 18 hours at 35° C.

`CC(c1ccccc1)C1NC(=O)CNC(=O)C(CO)NC(=O)C(C(O)C2CNC(=N)N2C2OC(CO)C(O)C(O)C2O)NC(=O)C(C(O)C2CNC(=N)N2)NC(=O)C(Cc2ccc(OC3OC(CO)C(OC4OC(CO)C(OCc5ccc(OCc6ccccc6)cc5)C(O)C4O)C(O)C3O)cc2)NC1=O` (stereo not drawn) [Example 231a, Cyclo[glycyl-β-methylphenylalanyl-O-[4-O-[4-O-[4-(phenylmethoxy)benzyl]hexopyranosyl]-hexopyranosyl]tyrosyl-3-(2-iminoimidazolidin-4-yl)seryl-3-(3-hexopyranosyl-2-iminoimidazolidin-4-yl)serylseryl]] was tested, and the median effective dose (ED50), Staphylococcus aureus-SMITH (GC 4543) [1] was 0.06 mg/kg, the “MIC Streptococcus agalactiae (GC 4564)” value (Streptococcus sp.) was less than 0.06 µg/mL and the “MIC Streptococcus pneumoniae (ATCC 6301)” value (Streptococcus sp.) was less than 0.06 µg/mL. For the same compound, the “MIC Streptococcus pneumoniae (GC 1894)” value (Streptococcus sp.) was less than 0.06 µg/mL, the “MIC Streptococcus pneumoniae (GC 4565)” value (Streptococcus sp.) was less than 0.06 µg/mL and the “MIC Streptococcus pyogenes (GC 4563)” value (Streptococcus sp.) was less than 0.06 µg/mL. For the same compound, the “MIC Streptococcus pneumoniae (ATCC 6301)” value (Streptococcus sp.; inoculum 5×10^5 CFU/mL, strain ATCC 6301) was less than 0.06 µg/mL, the “MIC Streptococcus pneumoniae (GC 1894)” value (Streptococcus sp.; inoculum 5×10^5 CFU/mL, strain GC 1894) was less than 0.06 µg/mL and the “MIC Streptococcus pyogenes (GC 4563)” value (Streptococcus sp.; inoculum 5×10^5 CFU/mL, strain GC 4563) was less than 0.06 µg/mL. For the same compound, the “MIC Streptococcus agalactiae (GC 4564)” value (Streptococcus sp.; inoculum 5×10^5 CFU/mL, strain GC 4564) was less than 0.06 µg/mL, the “MIC Streptococcus pneumoniae (GC 4565)” value (Streptococcus sp.; inoculum 5×10^5 CFU/mL, strain GC 4565) was less than 0.06 µg/mL and the “MIC Coagulase Negative Staphylococcus (GC 4547)” value (Staphylococcus sp.) was 1 µg/mL (≈ 0.67 µM). For the same compound, the “MIC Coagulase Negative Staphylococcus (GC 4548)” value (Staphylococcus sp.) was 0.12 to 0.25 µg/mL, the “MIC Coagulase Negative Staphylococcus (GC 4549)” value (Staphylococcus sp.) was greater than 0.12 to 0.25 µg/mL and the “MIC Coagulase Negative Staphylococcus (GC 4551)” value (Staphylococcus sp.) was 0.5 µg/mL (≈ 0.335 µM). The “MIC Coagulase Negative Staphylococcus (GC 6257)” value (Staphylococcus sp.) was 0.5 µg/mL (≈ 0.335 µM), the “MIC Staphylococcus aureus (ATCC 29213)” value (Staphylococcus sp.) was 1 to 2 µg/mL and the “MIC Staphylococcus aureus (GC 1131)” value (Staphylococcus sp.) was 1 to 2 µg/mL. For the same compound, the “MIC Staphylococcus aureus (GC 3051)” value (Staphylococcus sp.) was 1 µg/mL (≈ 0.67 µM), the “MIC Staphylococcus aureus (GC 3053)” value (Staphylococcus sp.) was 1 to 2 µg/mL and the “MIC Staphylococcus aureus (GC 4541)” value (Staphylococcus sp.) was 1 to 2 µg/mL. For the same compound, the “MIC Staphylococcus aureus (GC 4542)” value (Staphylococcus sp.) was 0.5 to 1 µg/mL, the “MIC Staphylococcus aureus (GC 4544)” value (Staphylococcus sp.) was 2 to 4 µg/mL and the “MIC Staphylococcus aureus (GC 4545)” value (Staphylococcus sp.) was 1 to 2 µg/mL. The “MIC Staphylococcus aureus-SMITH (GC 4543)” value (Staphylococcus sp.) was 1 µg/mL (≈ 0.67 µM), the “MIC Staphylococcus haemolyticus (GC 4546)” value (Staphylococcus sp.) was 1 µg/mL (≈ 0.67 µM) and the “MIC Staphylococcus aureus (ATCC 29213)” value (Staphylococcus sp.; strain ATCC 29213) was 1 to 2 µg/mL. The “MIC Staphylococcus aureus (GC 1131)” value (Staphylococcus sp.; strain GC 1131) was 1 to 2 µg/mL, the “MIC Staphylococcus aureus (GC 3051)” value (Staphylococcus sp.; strain GC 3051) was 1 µg/mL (≈ 0.67 µM) and the “MIC Staphylococcus aureus (GC 3053)” value (Staphylococcus sp.; strain GC 3053) was 1 to 2 µg/mL. For the same compound, the “MIC Staphylococcus aureus (GC 4541)” value (Staphylococcus sp.; strain GC 4541) was 1 to 2 µg/mL, the “MIC Staphylococcus aureus (GC 4542)” value (Staphylococcus sp.; strain GC 4542) was 0.5 to 1 µg/mL and the “MIC Staphylococcus aureus-SMITH (GC 4543)” value (Staphylococcus sp.; strain GC 4543) was 1 µg/mL (≈ 0.67 µM). For the same compound, the “MIC Staphylococcus aureus (GC 4544)” value (Staphylococcus sp.; strain GC 4544) was 2 to 4 µg/mL, the “MIC Staphylococcus aureus (GC 4545)” value (Staphylococcus sp.; strain GC 4545) was 1 to 2 µg/mL and the “MIC Staphylococcus haemolyticus (GC 4546)” value (Staphylococcus sp.; strain GC 4546) was 1 µg/mL (≈ 0.67 µM). The “MIC Coagulase Negative Staphylococcus (GC 4547)” value (Staphylococcus sp.; strain GC 4547) was 1 µg/mL (≈ 0.67 µM), the “MIC Coagulase Negative Staphylococcus (GC 4548)” value (Staphylococcus sp.; strain GC 4548) was 0.12 to 0.25 µg/mL and the “MIC Coagulase Negative Staphylococcus (GC 4549)” value (Staphylococcus sp.; strain GC 4549) was less than 0.12 to 0.25 µg/mL. The “MIC Coagulase Negative Staphylococcus (GC 4551)” value (Staphylococcus sp.; strain GC 4551) was 0.5 µg/mL (≈ 0.335 µM), the “MIC Coagulase Negative Staphylococcus (GC 6257)” value (Staphylococcus sp.; strain GC 6257) was 0.5 µg/mL (≈ 0.335 µM) and the “MIC Enterococcus avium (GC 4558)” value (Enterococcus sp.) was 2 µg/mL (≈ 1.34 µM). For the same compound, the “MIC Enterococcus faecalis (ATCC 29212)” value (Enterococcus sp.) was 2 µg/mL (≈ 1.34 µM), the “MIC Enterococcus faecalis (GC 2242)” value (Enterococcus sp.) was 2 to 4 µg/mL and the “MIC Enterococcus faecalis (GC 2691)” value (Enterococcus sp.) was 2 µg/mL (≈ 1.34 µM). The “MIC Enterococcus faecalis (GC 3059)” value (Enterococcus sp.) was 1 to 2 µg/mL, the “MIC Enterococcus faecalis (GC 4552)” value (Enterococcus sp.) was 4 µg/mL (≈ 2.68 µM) and the “MIC Enterococcus faecalis (GC 4553)” value (Enterococcus sp.) was 4 µg/mL (≈ 2.68 µM). For the same compound, the “MIC Enterococcus faecalis (GC 4554)” value (Enterococcus sp.) was 4 µg/mL (≈ 2.68 µM), the “MIC Enterococcus faecalis (GC 6189)” value (Enterococcus sp.) was 1 to 2 µg/mL and the “MIC Enterococcus faecium (GC 2243)” value (Enterococcus sp.) was 2 µg/mL (≈ 1.34 µM). The “MIC Enterococcus faecium (GC 4556)” value (Enterococcus sp.) was 2 to 4 µg/mL, the “MIC Enterococcus faecium (GC 4557)” value (Enterococcus sp.) was 2 µg/mL (≈ 1.34 µM) and the “MIC Enterococcus faecalis (ATCC 29212)” value (Enterococcus sp.; inoculum 5×10^5 CFU/mL, strain ATCC 29212) was 2 µg/mL (≈ 1.34 µM). The “MIC Enterococcus faecalis (GC 2242)” value (Enterococcus sp.; inoculum 5×10^5 CFU/mL, strain GC 2242) was 2 to 4 µg/mL, the “MIC Enterococcus faecium (GC 2243)” value (Enterococcus sp.; inoculum 5×10^5 CFU/mL, strain GC 2243) was 2 µg/mL (≈ 1.34 µM) and the “MIC Enterococcus faecalis (GC 2691)” value (Enterococcus sp.; inoculum 5×10^5 CFU/mL, strain GC 2691) was 2 µg/mL (≈ 1.34 µM). The “MIC Enterococcus faecalis (GC 3059)” value (Enterococcus sp.; inoculum 5×10^5 CFU/mL, strain GC 3059) was 1 to 2 µg/mL, the “MIC Enterococcus faecalis (GC 4552)” value (Enterococcus sp.; inoculum 5×10^5 CFU/mL, strain GC 4552) was 4 µg/mL (≈ 2.68 µM) and the “MIC Enterococcus faecalis (GC 4553)” value (Enterococcus sp.; inoculum 5×10^5 CFU/mL, strain GC 4553) was 4 µg/mL (≈ 2.68 µM). The “MIC Enterococcus faecalis (GC 4554)” value (Enterococcus sp.; inoculum 5×10^5 CFU/mL, strain GC 4554) was 4 µg/mL (≈ 2.68 µM), the “MIC Enterococcus faecium (GC 4556)” value (Enterococcus sp.; inoculum 5×10^5 CFU/mL, strain GC 4556) was 2 to 4 µg/mL and the “MIC Enterococcus faecium (GC 4557)” value (Enterococcus sp.; inoculum 5×10^5 CFU/mL, strain GC 4557) was 2 µg/mL (≈ 1.34 µM). For the same compound, the “MIC Enterococcus avium (GC 4558)” value (Enterococcus sp.; inoculum 5×10^5 CFU/mL, strain GC 4558) was 2 µg/mL (≈ 1.34 µM), the “MIC Enterococcus faecalis (GC 6189)” value (Enterococcus sp.; inoculum 5×10^5 CFU/mL, strain GC 6189) was 1 to 2 µg/mL and the “MIC Escherichia coli (ATCC 25922)” value (Escherichia coli) was 32 to 64 µg/mL. For the same compound, the “MIC Escherichia coli (GC 4559)” value (Escherichia coli) was 32 µg/mL (≈ 21.5 µM) and the “MIC Escherichia coli (GC 4560)” value (Escherichia coli) was 0.5 to 2 µg/mL.
